The subject of series [1] is HCT 116. The series is described as follows: MTT cell viability assay, HCT 116. Type of series: cell-based. The settings on record: HCT 116 (Human colon), 48 hours, average of three experiments, read-out: IC50 values (growth inhibition constants). The protocol: (§1) The compound DAT1 was tested for its cytotoxicity on human cervical, uterus and colon cancer cell lines and mouse fibrocercoma cells. Cell lines were obtained from ATCC, USA and NCCS, Pune, India. MTT assay, which correlates a fomazan dye formation wife the number of viable cells, was used for this purpose.
(§2) • 3. Cell Viability Assay: MTT assay was used to determine fee number of viable cells upon drug addition. Cells were seeded in microtitre plates (generally 5×10^3 cells per well) and were incubated with different concentrations of the cytotoxic agents for 48 h. Subsequently, 100 μl of MTT solution (0.6 mg/ml) was added per well and incubated at 37° C. for additional 2 h. The amount of formazan salt was quantified in quadruplicates by recording fee absorbance at 570 ran using a Biorad Plate reader. The growth inhibition constants (IC50) were calculated from the semi logarithmic dose response plots using fee nonlinear regression program Origin. All the experiments were done for at least three times. • 4. Microtubule and Tubulin Preparation: Microtubular protein was prepared from goat brains by two cycles of temperature dependent assembly-disassembly process in PEM buffer (100 mM PIPES, pH 6.9, 1 mM MgCl2 & 1 mM EGTA ) with 1 mM GTP at 37° C. For fee polymerization experiments, it was followed by one more cycle in PEM. Tubulin was purified from 2X MTP using glutamate buffer for assembly. • 5. Polymerization assay: MTP polymerization, in fee presence or absence of DAT1, was measured by the time course of fee turbidity at 37° at 345 nm. A Shimadzu UV-1601 double beam spectrophotometer fitted with a temperature-controlled circulating water bath was used for this purpose. • 6. […] Tubulin binding: Emission spectra of DAT1 in presence of tubulin were recorded from 400 nm to 600 nm using an excitation wavelength of 374 nm. Excitation and emission bandpasses are 2.5 nm each and the fluorescence values recorded are uncorrected. All fluorescence measurements were performed in a Perkin-Elmer model LS50B Luminescence spectrometer.
(In general: Tetrazolium assays rely on reduction of a dye to a coloured formazan, in cell work by metabolically active cells.)

In series [2] the test system is HeLa. The series is described as follows: MTT cell viability assay, HeLa. Format: cell-based. The settings on record: HeLa (Human cervix), 48 hours, average of three experiments, read-out: IC50 values (growth inhibition constants). The protocol: as §1, §2
For series [3], the system named is L-929. The series can be described thus: MTT cell viability assay, L-929. The following applies: L929, L-929 (Mouse connective tissue), 48 hours, average of three experiments, read-out: IC50 values (growth inhibition constants). Type of series: cell-based. The procedure: as §1
(§3) • 3. Cell Viability Assay: MTT assay was used to determine fee number of viable cells upon drug addition. Cells were seeded in microtitre plates (generally 5×10^3 cells per well) and were incubated with different concentrations of the cytotoxic agents for 48 h. Subsequently, 100 μl of MTT solution (0.6 mg/ml) was added per well and incubated at 37° C. for additional 2 h. The amount of formazan salt was quantified in quadruplicates by recording fee absorbance at 570 ran using a Biorad Plate reader. The growth inhibition constants (IC50) were calculated from the semi logarithmic dose response plots using fee nonlinear regression program Origin. […] Polymerization assay: MTP polymerization, in fee presence or absence of DAT1, was measured by the time course of fee turbidity at 37° at 345 nm. […] Tubulin binding: Emission spectra of DAT1 in presence of tubulin were recorded from 400 nm to 600 nm using an excitation wavelength of 374 nm. Excitation and emission bandpasses are 2.5 nm each and the fluorescence values recorded are uncorrected. […]

For series [4], the system named is CaSki. The series is described as follows: MTT cell viability assay, CaSki. The following applies: Ca-Ski, CaSki (Human cervix), 48 hours, average of three experiments, read-out: IC50 values (growth inhibition constants). Format: cell-based. The procedure: as §1, §3
Series [5] relates to SW 620. The series can be described thus: MTT cell viability assay, SW 620. Type of series: cell-based. The following applies: SW 620 (Human colon), 48 hours, average of three experiments, read-out: IC50 values (growth inhibition constants). The procedure: as §1, §2
For series [6], the system named is SiHa. The series can be described thus: MTT cell viability assay, SiHa. Type of series: cell-based. The following applies: SiHa (Human cervix), 48 hours, average of three experiments, read-out: IC50 values (growth inhibition constants). The protocol:
as §1, §3

The subject of series [7] is MES-SA/Dx5. The series is described as follows: MTT cell viability assay, multidrug resistant MES-SA/Dx5. The settings on record: for IC50: MES-SA/Dx5 (Human uterus), multidrug resistant, 48 hours, MTT, average of three experiments, read-out: IC50 values (growth inhibition constants). Format: cell-based, Human. The protocol:
as §1
• 3. Cell Viability Assay: MTT assay was used to determine fee number of viable cells upon drug addition. Cells were seeded in microtitre plates (generally 5×10^3 cells per well) and were incubated with different concentrations of the cytotoxic agents for 48 h. Subsequently, 100 μl of MTT solution (0.6 mg/ml) was added per well and incubated at 37° C. for additional 2 h. The amount of formazan salt was quantified in quadruplicates by recording fee absorbance at 570 ran using a Biorad Plate reader. The growth inhibition constants (IC50) were calculated from the semi logarithmic dose response plots using fee nonlinear regression program Origin. All the experiments were done for at least three times. • 4. Microtubule and Tubulin Preparation: Microtubular protein was prepared from goat brains by two cycles of temperature dependent assembly-disassembly process in PEM buffer (100 mM PIPES, pH 6.9, 1 mM MgCl2 & 1 mM EGTA ) with 1 mM GTP at 37° C. For fee polymerization experiments, it was followed by one more cycle in PEM. Tubulin was purified from 2X MTP using glutamate buffer for assembly. • 5. Polymerization assay: MTP polymerization, in fee presence or absence of DAT1, was measured by the time course of fee turbidity at 37° at 345 nm. A Shimadzu UV-1601 double beam spectrophotometer fitted with a temperature-controlled circulating water bath was used for this purpose. • 6. Immunofluorescence assay: HeLa cells were incubated with the drug for 24 h at 37° C., washed with PBS and fixed with 4% paraformaldehyde at 4° C. Subsequently, they were washed and permeabilized with 0.2% Triton X-100 in PBS for 20 min at 37° C. […] Tubulin binding: Emission spectra of DAT1 in presence of tubulin were recorded from 400 nm to 600 nm using an excitation wavelength of 374 nm. Excitation and emission bandpasses are 2.5 nm each and the fluorescence values recorded are uncorrected. All fluorescence measurements were performed in a Perkin-Elmer model LS50B Luminescence spectrometer.

The subject of series [8] is human cervical, uterus and colon cancer cell lines and mouse fibrocercoma cells. The series can be described thus: MTT cytotoxicity, panel of cancer cell lines (summary). Format: cell-based. The following applies: read-out: IC50 values, range. The protocol: as §1, §3
Series [9] deals with IMR 90 (lung epithelial). The series can be described thus: Cell survival in normal immortalized cell line. Format: cell-based. The settings on record: concentration much more than the IC50 values in the cancer cell lines; data not shown. An excerpt:
The cell survival in fee normal immortalized cell line IMR 90 (lung epithelial) was good after fee treatment of DAT1 in a concentration which was much more than the IC50 values in all fee cancer cell lines tested. In comparison, fee cell survival was less upon vinblastine treatment and similar upon paclitaxel treatment in similar concentrations (data not shown).

The mark [10] stands for this setting: multidrug resistant cell line MES-SA/DX5.

Where two headings read alike, the source gives them in different places.

By IC50 is commonly meant the concentration needed to halve the response being measured. For `COc1ccc(Nc2nc(N)c(C(=O)c3ccccc3)s2)cc1` [DAT1, Diaminoketothiazole], the IC50 in [1] came out at 300 nM; in series [2], 54 nM; in [3], 1000 nM; in series [4], 200 nM; in series [5] it was 200 nM; in [6], 5 µM. In addition, the IC50 in series [7] was 350 nM; in series [8] (in 2 cell lines) it was 1000 to 5000 nM; in series [8] (in 5 out of the 9 cell lines tested), 50 to 300 nM. For the same compound, in series [7] (setting [10]), the “times more active than paclitaxel” value turned out to be 15 times. In addition, the “times more active than vinblastine” value in series [7] (setting [10]) amounted to 2 times. The “cell survival after treatment” value in series [9] is given as “good”.
For `CC(=O)O[C@H]1C(=O)[C@@]2(C)[C@H]([C@H](OC(=O)c3ccccc3)[C@]3(O)C[C@H](OC(=O)[C@H](O)[C@@H](NC(=O)c4ccccc4)c4ccccc4)C(C)=C1C3(C)C)[C@]1(OC(C)=O)CO[C@@H]1C[C@@H]2O` [Paclitaxel], the IC50 in [1] was 12 nM; in series [2], 34 nM; in [3], 300 nM; in series [4] it was 20 nM; in series [5] it was 7 nM; in series [6] it was 1.1 µM. For the same compound, the IC50 in series [7] came out at 8600 nM. For the same compound, in series [9], the “cell survival after treatment” value is “similar”.
Take `CC[C@]1(O)C[C@@H]2CN(CCc3c([nH]c4ccccc34)[C@@](C(=O)OC)(c3cc4c(cc3OC)N(C)[C@H]3[C@@](O)(C(=O)OC)[C@H](OC(C)=O)[C@]5(CC)C=CCN6CC[C@]43[C@@H]65)C2)C1` [Vinblastine]: the concentration for half-maximal inhibition (IC50) in [1] came to 5 nM; in series [2] it was 1 nM; in series [5] it was 200 nM; in [7] it was 730 nM. Besides, in series [9], the “cell survival after treatment” value is recorded as “less”.

Values taken from patent US8158806B2, “DAT1” (Department of Biotechnology, priority 2004, dated 2012).
